US20250049801A1, “PHARMACEUTICAL COMBINATIONS FOR USE IN THE TREATMENT OF NEOPLASTIC DISEASES” (priority 2021, published 2025)
Marks after values point to notes of the source that are not given here.

Experiments:
TTK [1] = molecular target: T1, TTK (Homo sapiens, UniProt P33981); experiment: Radiometric protein kinase assay (33PanQinase Activity Assay), TTK; assay type: biochemical; settings: radiometric 33PanQinase assay; ATP 0.3 mM
T1 construct: TTK and PLK1 protein kinases were expressed as recombinant full-length GST-fusion proteins; GST
T1 sequence (P33981 1-857): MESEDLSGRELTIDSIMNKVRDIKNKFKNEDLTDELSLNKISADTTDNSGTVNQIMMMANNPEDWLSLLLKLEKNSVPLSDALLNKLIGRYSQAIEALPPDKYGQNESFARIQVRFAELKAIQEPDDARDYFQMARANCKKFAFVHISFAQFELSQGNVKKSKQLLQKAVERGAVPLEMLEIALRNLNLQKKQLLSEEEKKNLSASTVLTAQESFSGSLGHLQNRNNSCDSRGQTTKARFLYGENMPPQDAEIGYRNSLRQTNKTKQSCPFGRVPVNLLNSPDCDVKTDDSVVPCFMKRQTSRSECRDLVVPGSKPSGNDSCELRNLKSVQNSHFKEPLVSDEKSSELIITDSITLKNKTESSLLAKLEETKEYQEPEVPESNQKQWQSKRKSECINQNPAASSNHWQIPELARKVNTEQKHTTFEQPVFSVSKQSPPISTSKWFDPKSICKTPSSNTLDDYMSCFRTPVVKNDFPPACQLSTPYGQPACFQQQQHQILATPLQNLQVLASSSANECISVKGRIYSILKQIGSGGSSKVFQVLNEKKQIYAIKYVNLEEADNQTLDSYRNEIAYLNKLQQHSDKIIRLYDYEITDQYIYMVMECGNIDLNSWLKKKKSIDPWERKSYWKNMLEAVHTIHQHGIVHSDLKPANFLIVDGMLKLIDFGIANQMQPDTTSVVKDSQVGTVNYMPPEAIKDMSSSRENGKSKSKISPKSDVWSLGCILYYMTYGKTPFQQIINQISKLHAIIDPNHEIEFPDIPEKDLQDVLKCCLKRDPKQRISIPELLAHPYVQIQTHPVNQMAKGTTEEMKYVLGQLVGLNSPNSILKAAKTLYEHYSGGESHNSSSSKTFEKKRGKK
Protocol: (§1) A radiometric protein kinase assay (33PanQinase® Activity Assay) was used for measuring the kinase activity of TTK and PLK1. TTK and PLK1 protein kinases were expressed as recombinant full-length GST-fusion proteins. The reaction cocktail contained […] of enzyme/substrate mixture. The assay for the protein kinases contained 70 mM HEPES-NaOH pH 7.5, 3 mM MgCl2, 3 mM MnCl2, 3 mM Na-orthovanadate, 1.2 mM DTT, […] PEG20000, ATP (0.3 mM for TTK and 1 mM for PLK1), [γ-33P]-ATP (approx. 8×10^5 cpm per well), protein kinase (15.8 nM for TTK and 5 nM for PLK1), and substrate (1 mg/50 mL for TTK and 2 mg/50 mL for PLK1). All assays were performed with a Beckman-Coulter/SAGIAN™ Core System. The fitting model for the IC50 determinations was “Sigmoidal response (variable slope)” with parameters “top” fixed at 100% and “bottom” at 0%. The fitting method used was a least squares fit.

PLK1 [2] = molecular target: T2, PLK1 (Homo sapiens, UniProt P53350); experiment: Radiometric protein kinase assay (33PanQinase Activity Assay), PLK1; assay type: biochemical; settings: radiometric 33PanQinase assay; ATP 1 mM
T2 sequence (P53350 whole entry): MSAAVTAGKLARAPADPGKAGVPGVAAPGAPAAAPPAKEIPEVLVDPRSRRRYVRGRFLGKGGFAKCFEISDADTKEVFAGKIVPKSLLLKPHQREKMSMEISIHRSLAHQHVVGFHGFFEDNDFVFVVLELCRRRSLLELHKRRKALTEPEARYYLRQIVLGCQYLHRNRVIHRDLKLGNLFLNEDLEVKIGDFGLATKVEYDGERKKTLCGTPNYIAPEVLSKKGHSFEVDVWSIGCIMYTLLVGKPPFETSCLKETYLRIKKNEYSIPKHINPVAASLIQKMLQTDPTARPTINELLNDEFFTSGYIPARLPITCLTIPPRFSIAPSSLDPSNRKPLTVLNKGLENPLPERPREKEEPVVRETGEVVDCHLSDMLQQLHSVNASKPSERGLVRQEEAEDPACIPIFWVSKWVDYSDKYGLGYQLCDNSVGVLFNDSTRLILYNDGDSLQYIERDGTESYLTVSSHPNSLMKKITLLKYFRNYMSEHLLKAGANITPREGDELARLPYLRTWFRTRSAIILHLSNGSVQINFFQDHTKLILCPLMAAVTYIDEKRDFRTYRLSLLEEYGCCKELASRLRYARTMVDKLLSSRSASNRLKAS
Protocol: as §1

TTK [3] = molecular target: T1, TTK; experiment: TTK kinase assay as described in WO 2015/155042; assay type: biochemical; settings: when measured as described in WO 2015/155042
PLK1 [4] = molecular target: T2, PLK1; experiment: PLK1 kinase assay as described in WO 2015/155042; assay type: biochemical; settings: when measured as described in WO 2015/155042
other kinase = experiment: Kinase specificity, other kinases versus TTK; assay type: biochemical
[5] = molecular target: T3, TTK kinase domain (amino acids 519-808) (Homo sapiens, UniProt P33981); experiment: Target residence time assay (Biacore T200 surface plasmon resonance), TTK; assay type: binding; settings: SPR, 22° C.
T3 construct: recombinant expressed TTK kinase domain (amino acids 519-808)
T3 sequence (P33981 519-808): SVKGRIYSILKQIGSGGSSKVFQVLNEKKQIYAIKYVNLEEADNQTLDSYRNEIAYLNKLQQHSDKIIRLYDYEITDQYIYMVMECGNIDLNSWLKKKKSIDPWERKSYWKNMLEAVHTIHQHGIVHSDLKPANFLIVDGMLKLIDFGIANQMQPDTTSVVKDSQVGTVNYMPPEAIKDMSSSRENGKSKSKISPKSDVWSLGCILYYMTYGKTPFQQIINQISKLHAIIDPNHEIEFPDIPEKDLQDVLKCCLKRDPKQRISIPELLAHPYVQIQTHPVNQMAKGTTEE
Protocol: (§2) The affinity, i.e. the equilibrium dissociation constant (KD) (referred to as residence times), of the compound of formula (I) against TTK and PLK1 were determined using a Biacore T200™ surface plasmon resonance instrument using recombinant expressed TTK kinase domain (amino acids 519-808) or biotinylated PLK1. The immobilization of TTK was performed as described in Maia et al. Annals of Oncology, 2015; 26:2180-2192. The immobilization of biotinylated PLK1 was performed as described in Willemsen-Seegers et al. Journal of Molecular Biology, 2017; 429:574-586. The subsequent single cycle kinetic assays were performed at 22° C. using a compound concentration gradient of 1, 3.6, 10, 31.6 and 100 nM for TTK and 10, 31.6, 100, 316 and 1000 nM for PLK1, a contact time of 100 s and a flow rate of […]. The dissociation period was 1200-1800 s and a correction for an unstable surface using a blank run with buffer was performed.

biotinylated PLK1 = molecular target: T4, biotinylated PLK1 (Homo sapiens, UniProt P53350); experiment: Target residence time assay (Biacore T200 surface plasmon resonance), PLK1; assay type: binding; settings: SPR, 22° C.
T4 construct: biotin (biotinylated)
T4 sequence (P53350 whole entry): as the sequence (P53350 whole entry) above
Protocol: as §2

tumor-derived TTK = molecular target: T5, tumor-derived TTK (Homo sapiens, UniProt P33981); experiment: Tumor TTK target occupancy in MDA-MB-231 xenograft-bearing mice; assay type: in vivo
T5 construct: from tissue; host or cells: MDA-MB-231 xenograft tumours from mice
T5 sequence (P33981 1-857): T1 sequence (P33981 1-857)
Protocol: Prolonged TTK target occupancy was also measured in tumors derived from MDAMB-231 xenograft-bearing mice treated with intermittent i.v. dosing regimen of compound of formula (I). […]

[6] = test system: triple negative breast cancer cell lines; experiment: 5-day anti-proliferative screen of 18 triple negative breast cancer cell lines; assay type: cell-based; settings: 120 h, 18 different triple negative breast cancer cell lines, read-out: median GI50
From the text: (§3) In cellular systems, the compound of formula (I) has high potency against sensitive cells.

[7] = test system: patient-derived tumor xenografts, including TNBC and hepatocellular cancer (HCC) models; experiment: Patient-derived tumor xenografts in mice (data not shown); assay type: in vivo
From the text: as §3

[8] = test system: patient-derived xenograft (PDX) triple negative breast cancer (TNBC) tumor, BR1282; experiment: First PDX study, efficacy; assay type: in vivo, BALB/c nude mice; settings: for Efficacy: ΔT/C Day 16: mean change in tumor volume on day 16; for Efficacy: ΔT/C Day −0 up to Day 42: mean rate of growth (k), exponential curve fits, day 0 to culling day or day 42; for Cures Day 97: no tumors detectable by H&E staining of skin on day 97, N=8 mice/group
Protocol: (§4) The compound of formula (I) was supplied as a powder by Basilea Pharmaceutica International Ltd. and was prepared freshly as a solution in Ethanol: PEG400:Citric acid 20 mM, at a ratio of 1:1:8, for immediate administration.
(§5) The statistical significance of efficacy were determined in two different ways using a) the endpoint on day 16 or day 13 depending on the study when it was necessary to cull the vehicle group because of tumor volume exceeding 1500 mm3, and b) at the endpoint of day 42 or day 51 depending on the study (one week after the final treatment) when exponential curve fits were applied to estimate the rates of tumor growth in the different groups. Finally, the number of complete cures was compared across the groups following confirmation by histopathology within the first study. The degree of an effect was quantified by the delta (Δ) treated/control ratio (ΔT/C) and the statistical significance of the effect was determined by a one-way analysis of variance (1W-ANOVA) with Holms-Sidak applied post-hoc for multiple determinations, where a p-value of <0.05 was considered statistically significant. In addition, an assessment of synergy was made based upon the Clarkes Combination Index (CCI), where the CCI=ΔT/CAB−(ΔT/CA*ΔT/CB) in which A and B are two different compounds, where CCI<−0.1 indicates synergy (or a positive interaction), +0.1 (antagonism, or a negative interaction) and between −0.1 and +0.1 indicates additivity (no interaction); see O'Reilly et al. Anti Cancer Drugs 2011; 22:58-78.

[9] = for Tolerability (Day 16) ΔBW (%) / Tolerability (Day 16) ΔT/C: mouse, in vivo
Protocol: In a first PDX study female BALB/c nude mice (CrownBio) of at least 20 g body weight were subcutaneously (s.c.) inoculated in the right flank with tumor fragments (3*3*3 mm) from stock mice bearing the patient-derived xenograft (PDX) triple negative breast cancer (TNBC) tumor, BR1282. Randomization into 5 different treatment groups (8 mice per group) was made when the mean tumor size was 150-200 mm3. […] The fifth group received both vehicles using the time interval of 4 h and all groups were dosed twice via the tail vein. Dosing was delayed by 1 day in any mice showing transient body weight loss of ≥ 10% at any time point.
(§6) Body weights and tumor volumes were determined at least twice per week, the latter by measuring two dimensions with calipers and applying the formula “V=(L×W2)/2”, where V is the tumor volume, and L and W are the tumor length and width respectively. […] Mice were also culled if the BWL was determined to be >15% for 3 consecutive days. Any mice with >10% BWL, automatically were dosed on one of the following days, as soon as the BWL returned to <10%. All animal protocols were reviewed and approved by the relevant local committees in China, where the studies were performed.

TNBC BR1282 PDX model = experiment: Second PDX study, efficacy; assay type: in vivo, BALB/c nude mice; settings: for Efficacy: ΔT/C Day 13: mean change in tumor volume on day 13; for Efficacy: ΔT/C Day 0 up to day 51: mean rate of growth (k), day 0 to culling day or day 51; for Cures By day 148: no tumors detectable by pathological confirmation at end of observation period, 8 mice per group
Protocol: as §4, §5

[10] = mouse, in vivo
Protocol: Dosing was delayed by 1 day in any mice showing transient body weight loss of ≥ 10% at any time point.
as §6

[11] = Single-dose pharmacokinetic drug-drug interaction experiment; assay type: in vivo; settings: 8 mg/kg i.v., 1 h after paclitaxel (15 mg/kg, i.v.); non tumor-bearing mice

## COc1cc(N2CCNCC2)ccc1Nc1ncc2c(n1)-n1ccc(C(=O)Nc3c(C)cccc3C)c1CC2 [Compound of formula (I)]
TTK [1]
  IC50: 7 nM
PLK1 [2]
  IC50: 72 nM
TTK [3]
  IC50: 0.4 nM
PLK1 [4]
  IC50: 46 nM
Other kinase
  other kinase IC50s higher than those for TTK: at least 10 fold
[5]
  target-residency on TTK: > 12 h
Biotinylated PLK1
  target-residency on PLK1: a few minutes
tumor-derived TTK; i.v. twice-weekly, MTD dose
  time TTK completely occupied after last dose: at least 72 h
tumor-derived TTK; i.v. weekly MTD dosing
  time tumor-derived TTK fully drug-occupied after last administration: up to 6 days
[6]
  GI50: 35 nM
[7]
  activity against patient-derived tumor xenografts: significant activity
[8]
  Efficacy: ΔT/C Day 16: 0.45
  Efficacy: ΔT/C Day −0 up to Day 42: 0.28***
  Cures Day 97: 0/8
[9]; day 21, considered non-drug-related
  mortality: one mouse died
[9]
  Tolerability (Day 16) ΔBW (%): −0.3 ± 1.4%
  Tolerability (Day 16) ΔT/C: 1.01
TNBC BR1282 PDX model; day 51
  animals indicating regression: 3/8
TNBC BR1282 PDX model
  Efficacy: ΔT/C Day 13: 0.32
  Efficacy: ΔT/C Day 0 up to day 51: −0.02***
  Cures By day 148: 0/8
[10]
  Tolerability (Day 13) ΔBW (%): −1.9 ± 1.4%
  Tolerability (Day 13) ΔT/C: 0.93
[11]
  change in plasma AUC of the compound of formula (I): slight nonsignificant increase

## CC(=O)O[C@H]1C(=O)[C@@]2(C)[C@H]([C@H](OC(=O)c3ccccc3)[C@]3(O)C[C@H](OC(=O)[C@H](O)[C@@H](NC(=O)c4ccccc4)c4ccccc4)C(C)=C1C3(C)C)[C@]1(OC(C)=O)CO[C@@H]1C[C@@H]2O [Paclitaxel, reference compound]
[8]
  Efficacy: ΔT/C Day 16: 0.24
  Efficacy: ΔT/C Day −0 up to Day 42: 0.41***
  Cures Day 97: 0/8
[9]
  Tolerability (Day 16) ΔBW (%): −1.0 ± 1.2%
  Tolerability (Day 16) ΔT/C: 1.00
TNBC BR1282 PDX model
  Efficacy: ΔT/C Day 13: 0.48
  Efficacy: ΔT/C Day 0 up to day 51: 0.63***
  Cures By day 148: 0/8
[10]
  Tolerability (Day 13) ΔBW (%): 4.9 ± 0.3%
  Tolerability (Day 13) ΔT/C: 1.02
